In US10689377B2 (Mirati Therapeutics, Inc., priority 2017, dated 2020):

These compounds were tested against KRas G12C (Homo sapiens, UniProt P01116, G12C) (assay: Cellular inhibition of KRas G12C measured by Phospho-ERK in NCI-H358 cells). Conditions: pERK(Thr202/Tyr204) normalized with GAPDH, NCI-H358 cells, 3 hours; read-out: IC50.
Format: cell-based
Summary of the method: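 Ratio of phospho-ERK(Thr202/Tyr204) to GAPDH, read by near-infrared secondary antibodies on fixed, permeabilised NCI-H358 cells, expressed relative to DMSO control. Compound exposure was 3 h at 0.5% DMSO. IC50 values come from 4-parameter curve fits.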

Chain of KRas G12C (P01116 1-188 isoform P01116-2 G12C): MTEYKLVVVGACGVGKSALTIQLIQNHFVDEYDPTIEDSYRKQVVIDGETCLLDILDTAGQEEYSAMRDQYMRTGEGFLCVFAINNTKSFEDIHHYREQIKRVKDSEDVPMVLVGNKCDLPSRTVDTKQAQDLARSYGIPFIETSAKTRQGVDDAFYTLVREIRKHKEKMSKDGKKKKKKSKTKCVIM

Compound	IC50
C=C(F)C(=O)N1CCN(c2nc(OC[C@@H]3CCCN3C)nc3c2CCN(c2cccc(C)c2C)C3)C[C@@H]1CC#N [Example 472, 2-[(2S)-4-[7-(2,3-dimethylphenyl)-2-[[(2S)-1-methylpyrrolidin-2-yl]methoxy]-6,8-dihydro-5H-pyrido[3,4-d]pyrimidin-4-yl]-1-(2-fluoroprop-2-enoyl)piperazin-2-yl]acetonitrile]	0.1 to 1000 nM
C=C(Cl)C(=O)N1CCN(c2nc(OC[C@@H]3CCCN3C)nc3c2CCN(c2cccc(C)c2C)C3)C[C@@H]1CC#N [Example 473, 2-[(2S)-1-(2-chloroprop-2-enoyl)-4-[7-(2,3-dimethylphenyl)-2-[[(2S)-1-methylpyrrolidin-2-yl]methoxy]-6,8-dihydro-5H-pyrido[3,4-d]pyrimidin-4-yl]piperazin-2-yl]acetonitrile]	0.1 to 1000 nM
CN1CCC[C@H]1COc1nc2c(c(N3CCN(C(=O)C#CCO)[C@@H](CC#N)C3)n1)CCN(c1cccc3ccccc13)C2 [Example 474, 2-((S)-1-(4-hydroxybut-2-ynoyl)-4-(2-(((S)-1-methylpyrrolidin-2-yl)methoxy)-7-(naphthalen-1-yl)-5,6,7,8-tetrahydropyrido[3,4-d]pyrimidin-4-yl)piperazin-2-yl)acetonitrile]	0.1 to 1000 nM
Cc1cccc(N2CCc3c(nc(OC[C@@H]4CCCN4C)nc3N3CCN(C(=O)/C=C/CN4CCC(F)C4)[C@@H](CC#N)C3)C2)c1C (stereo partly drawn) [Example 476, 2-[(2S)-4-[7-(2,3-dimethylphenyl)-2-[[(2S)-1-methylpyrrolidin-2-yl]methoxy]-6,8-dihydro-5H-pyrido[3,4-d]pyrimidin-4-yl]-1-[(E)-4-(3-fluoropyrrolidin-1-yl)but-2-enoyl]piperazin-2-yl]acetonitrile]	0.1 to 1000 nM
CN1CCC[C@H]1COc1nc2c(c(N3CCN(C(=O)C#CCO)[C@@H](CC#N)C3)n1)CCN(c1cccc3cccc(Cl)c13)C2 [Example 483, 2-[(2S)-4-[7-(8-chloro-1-naphthyl)-2-[[(2S)-1-methylpyrrolidin-2-yl]methoxy]-6,8-dihydro-5H-pyrido[3,4-d]pyrimidin-4-yl]-1-(4-hydroxybut-2-ynoyl)piperazin-2-yl]acetonitrile]	0.1 to 1000 nM
Cc1cccc(N2CCc3c(nc(OC[C@@H]4CCCN4C)nc3N3CCN(C(=O)/C=C/C(F)(F)F)[C@@H](CC#N)C3)C2)c1C [Example 486, 2-((S)-4-(7-(2,3-dimethylphenyl)-2-(((S)-1-methylpyrrolidin-2-yl)methoxy)-5,6,7,8-tetrahydropyrido[3,4-d]pyrimidin-4-yl)-1-((E)-4,4,4-trifluorobut-2-enoyl)piperazin-2-yl)acetonitrile]	0.1 to 1000 nM
C=C(C(=O)N1CCN(c2nc(OC[C@@H]3CCCN3C)nc3c2CCN(c2cccc(C)c2C)C3)C[C@@H]1CC#N)C(F)(F)F [Example 487, 2-((S)-4-(7-(2,3-dimethylphenyl)-2-(((S)-1-methylpyrrolidin-2-yl)methoxy)-5,6,7,8-tetrahydropyrido[3,4-d]pyrimidin-4-yl)-1-(2-(trifluoromethyl)acryloyl)piperazin-2-yl)acetonitrile]	0.1 to 1000 nM
C=C(CO)C(=O)N1CCN(c2nc(OC[C@@H]3CCCN3C)nc3c2CCN(c2cccc(C)c2C)C3)C[C@@H]1CC#N [Example 488, 2-((S)-4-(7-(2,3-dimethylphenyl)-2-(((S)-1-methylpyrrolidin-2-yl)methoxy)-5,6,7,8-tetrahydropyrido[3,4-d]pyrimidin-4-yl)-1-(2-(hydroxymethyl)acryloyl)piperazin-2-yl)acetonitrile]	> 1000 nM
COC/C=C/C(=O)N1CCN(c2nc(OC[C@@H]3CCCN3C)nc3c2CCN(c2cccc(C)c2C)C3)C[C@@H]1CC#N [Example 489, 2-((S)-4-(7-(2,3-dimethylphenyl)-2-(((S)-1-methylpyrrolidin-2-yl)methoxy)-5,6,7,8-tetrahydropyrido[3,4-d]pyrimidin-4-yl)-1-((E)-4-methoxybut-2-enoyl)piperazin-2-yl)acetonitrile]	0.1 to 1000 nM
C=C(C(=O)N1CCN(c2nc(OC[C@@H]3CCCN3C)nc3c2CCN(c2cccc4cccc(C)c24)C3)C[C@@H]1CC#N)C(F)(F)F [Example 492, 2-((S)-4-(7-(8-methylnaphthalen-1-yl)-2-(((S)-1-methylpyrrolidin-2-yl)methoxy)-5,6,7,8-tetrahydropyrido[3,4-d]pyrimidin-4-yl)-1-(2-(trifluoromethyl)acryloyl)piperazin-2-yl)acetonitrile]	0.1 to 1000 nM
Cc1cccc2cccc(N3CCc4c(nc(OC[C@@H]5CCCN5C)nc4N4CCN(C(=O)/C=C/c5ccccn5)[C@@H](CC#N)C4)C3)c12 [Example 493, 2-((S)-4-(7-(8-methylnaphthalen-1-yl)-2-(((S)-1-methylpyrrolidin-2-yl)methoxy)-5,6,7,8-tetrahydropyrido[3,4-d]pyrimidin-4-yl)-1-((E)-3-(pyridin-2-yl)acryloyl)piperazin-2-yl)acetonitrile]	0.1 to 1000 nM
Cc1cccc2cccc(N3CCc4c(nc(OC[C@@H]5CCCN5C)nc4N4CCN(C(=O)/C=C/c5cnn(C)c5)[C@@H](CC#N)C4)C3)c12 [Example 494, 2-((S)-1-((E)-3-(1-methyl-1H-pyrazol-4-yl)acryloyl)-4-(7-(8-methylnaphthalen-1-yl)-2-(((S)-1-methylpyrrolidin-2-yl)methoxy)-5,6,7,8-tetrahydropyrido[3,4-d]pyrimidin-4-yl)piperazin-2-yl)acetonitrile]	> 1000 nM
Cc1cccc2cccc(N3CCc4c(nc(OC[C@@H]5CCCN5C)nc4N4CCN(C(=O)C5=CC(=O)CC5)[C@@H](CC#N)C4)C3)c12 [Example 497, 2-((S)-4-(7-(8-methylnaphthalen-1-yl)-2-(((S)-1-methylpyrrolidin-2-yl)methoxy)-5,6,7,8-tetrahydropyrido[3,4-d]pyrimidin-4-yl)-1-(3-oxocyclopent-1-ene-1-carbonyl)piperazin-2-yl)acetonitrile]	0.1 to 1000 nM
Cc1cccc2cccc(N3CCc4c(nc(OC[C@@H]5CCCN5C)nc4N4CCN(C(=O)/C=C/C(=O)N(C)C)[C@@H](CC#N)C4)C3)c12 [Example 499, (E)-4-((S)-2-(cyanomethyl)-4-(7-(8-methylnaphthalen-1-yl)-2-(((S)-1-methylpyrrolidin-2-yl)methoxy)-5,6,7,8-tetrahydropyrido[3,4-d]pyrimidin-4-yl)piperazin-1-yl)-N,N-dimethyl-4-oxobut-2-enamide]	0.1 to 1000 nM
Cc1cccc2cccc(N3CCc4c(nc(OC[C@@H]5CCCN5C)nc4N4CCN(C(=O)/C=C/C(N)=O)[C@@H](CC#N)C4)C3)c12 [Example 500, (E)-4-((S)-2-(cyanomethyl)-4-(7-(8-methylnaphthalen-1-yl)-2-(((S)-1-methylpyrrolidin-2-yl)methoxy)-5,6,7,8-tetrahydropyrido[3,4-d]pyrimidin-4-yl)piperazin-1-yl)-4-oxobut-2-enamide]	0.1 to 1000 nM
CN(C)C/C=C(/F)C(=O)N1CCN(c2nc(OC[C@@H]3CCCN3C)nc3c2CCN(c2cccc4cccc(Cl)c24)C3)C[C@@H]1CC#N [Example 503, 2-[(2S)-4-[7-(8-chloro-1-naphthyl)-2-[[(2S)-1-methylpyrrolidin-2-yl]methoxy]-6,8-dihydro-5H-pyrido[3,4-d]pyrimidin-4-yl]-1-[(E)-4-(dimethylamino)-2-fluoro-but-2-enoyl]piperazin-2-yl]acetonitrile]	> 1000 nM
Cc1cccc(N2CCc3c(nc(OC[C@@H]4CCCN4C)nc3N3CCN(C(=O)/C=C\Cl)[C@@H](CC#N)C3)C2)c1C [Example 505, 2-((S)-1-((Z)-3-chloroacryloyl)-4-(7-(2,3-dimethylphenyl)-2-(((S)-1-methylpyrrolidin-2-yl)methoxy)-5,6,7,8-tetrahydropyrido[3,4-d]pyrimidin-4-yl)piperazin-2-yl)acetonitrile]	> 1000 nM
Cc1cccc2cccc(N3CCc4c(nc(OC[C@@H]5CCCN5C)nc4N4CCN(C(=O)C#CCO)[C@@H](CC#N)C4)C3)c12 [Example 508, 2-((S)-1-(4-hydroxybut-2-ynoyl)-4-(7-(8-methylnaphthalen-1-yl)-2-(((S)-1-methylpyrrolidin-2-yl)methoxy)-5,6,7,8-tetrahydropyrido[3,4-d]pyrimidin-4-yl)piperazin-2-yl)acetonitrile]	0.1 to 1000 nM
C=C(F)C(=O)N1CCN(c2nc(OC[C@H]3C[C@@H](F)CN3C)nc3c2CCN(c2cccc4cccc(C)c24)C3)C[C@@H]1CC#N [Example 518, 2-[(2S)-4-[2-[[(2R,4R)-4-fluoro-1-methyl-pyrrolidin-2-yl]methoxy]-7-(8-methyl-1-naphthyl)-6,8-dihydro-5H-pyrido[3,4-d]pyrimidin-4-yl]-1-(2-fluoroprop-2-enoyl)piperazin-2-yl]acetonitrile]	0.1 to 1000 nM
C=C(F)C(=O)N1CCN(c2nc(OC[C@H]3C[C@@H](OC)CN3C)nc3c2CCN(c2cccc4cccc(C)c24)C3)C[C@@H]1CC#N [Example 519, 2-[(2S)-1-(2-fluoroprop-2-enoyl)-4-[2-[[(2R,4R)-4-methoxy-1-methyl-pyrrolidin-2-yl]methoxy]-7-(8-methyl-1-naphthyl)-6,8-dihydro-5H-pyrido[3,4-d]pyrimidin-4-yl]piperazin-2-yl]acetonitrile]	0.1 to 1000 nM
Cc1cccc2cccc(N3CCc4c(nc(OC[C@@H]5CC(F)(F)CN5C)nc4N4CCN(C(=O)/C=C/CN5CC(F)C5)[C@@H](CC#N)C4)C3)c12 [Example 520, 2-[(2S)-4-[2-[[(2S)-4,4-difluoro-1-methyl-pyrrolidin-2-yl]methoxy]-7-(8-methyl-1-naphthyl)-6,8-dihydro-5H-pyrido[3,4-d]pyrimidin-4-yl]-1-[(E)-4-(3-fluoroazetidin-1-yl)but-2-enoyl]piperazin-2-yl]acetonitrile]	0.1 to 1000 nM
C=C(F)C(=O)N1CCN(c2nc(OC[C@@H]3CCCN3C)nc3c2CCN(c2c(C)c(C)cc4[nH]ncc24)C3)C[C@@H]1CC#N [Example 521, 2-[(2S)-4-[7-(5,6-dimethyl-1H-indazol-4-yl)-2-[[(2S)-1-methylpyrrolidin-2-yl]methoxy]-6,8-dihydro-5H-pyrido[3,4-d]pyrimidin-4-yl]-1-(2-fluoroprop-2-enoyl)piperazin-2-yl]acetonitrile]	0.1 to 1000 nM
